According to patent US10322133B2, “Synthetic lethal drug combination for treating renal cell carcinoma” (Commissariat a l'Energie Atomique et aux Energies …, priority 2015, dated 2019):
Each block holds one molecule with its values, some of them ahead of it.

Key:
786-O VHL^− cells [1] = test: Viability assay (PrestoBlue) / high-throughput drug-gene screening; assay type: cell-based, human; conditions: for sensitivity of cells to ATM inhibitor after shRNA-mediated knockdown of CK2α (cell viability): shCK2α vs shCTRL 786-O cells, 48 h
Protocol: Cytotoxicity was measured using PrestoBlue assay (Invitrogen, Carlsbad, Calif.). Cell lines were seeded in a 96-well microtiter plate at a concentration of 5×10^4 cells/mL. Cells were allowed to attach for 24 hrs at 37° C. and 5% CO2. The cells were exposed to the negative control DMSO or positive drug CX-4945 at 20 μM for 48 h or the other molecules at indicated concentrations. […] DMSO was used as a negative control and 20 μM CX-4945 as a positive control. Plates were further cultured for 48 hrs. Cells were labeled with vital Hoechst (33342) together with Prestoblue and the fluorescence reading was made through the Tecan's Infinite M100 reader. See Flow chart in FIG. 1. Raw data were first imported into the database of the home-made analysis software TAMIS, used for analysis. […] Finally, for each compound X/targeted-shRNA Y pair and assay, the activity percentage obtained with the compound X/Ctrl-shRNA was taken from the compound X/targeted-shRNA Y activity percentage in order to identify compound X/targeted-shRNA Y pair showing additive, or even synergistic, effect compared to compound X/Ctrl-shRNA pair.

ATM = biological target: T1, ATM (Homo sapiens, UniProt Q13315); test: Western blot of ATM phosphorylation in 786-O cells; assay type: cell-based; conditions: 786-O VHL^+/−, 1.5% O2, 5 μM, 48 h
T1 construct: endogenous in cells; host or cells: 786-O cells (VHL- and VHL+), cultured under 1.5% O2
T1 sequence (Q13315 whole entry): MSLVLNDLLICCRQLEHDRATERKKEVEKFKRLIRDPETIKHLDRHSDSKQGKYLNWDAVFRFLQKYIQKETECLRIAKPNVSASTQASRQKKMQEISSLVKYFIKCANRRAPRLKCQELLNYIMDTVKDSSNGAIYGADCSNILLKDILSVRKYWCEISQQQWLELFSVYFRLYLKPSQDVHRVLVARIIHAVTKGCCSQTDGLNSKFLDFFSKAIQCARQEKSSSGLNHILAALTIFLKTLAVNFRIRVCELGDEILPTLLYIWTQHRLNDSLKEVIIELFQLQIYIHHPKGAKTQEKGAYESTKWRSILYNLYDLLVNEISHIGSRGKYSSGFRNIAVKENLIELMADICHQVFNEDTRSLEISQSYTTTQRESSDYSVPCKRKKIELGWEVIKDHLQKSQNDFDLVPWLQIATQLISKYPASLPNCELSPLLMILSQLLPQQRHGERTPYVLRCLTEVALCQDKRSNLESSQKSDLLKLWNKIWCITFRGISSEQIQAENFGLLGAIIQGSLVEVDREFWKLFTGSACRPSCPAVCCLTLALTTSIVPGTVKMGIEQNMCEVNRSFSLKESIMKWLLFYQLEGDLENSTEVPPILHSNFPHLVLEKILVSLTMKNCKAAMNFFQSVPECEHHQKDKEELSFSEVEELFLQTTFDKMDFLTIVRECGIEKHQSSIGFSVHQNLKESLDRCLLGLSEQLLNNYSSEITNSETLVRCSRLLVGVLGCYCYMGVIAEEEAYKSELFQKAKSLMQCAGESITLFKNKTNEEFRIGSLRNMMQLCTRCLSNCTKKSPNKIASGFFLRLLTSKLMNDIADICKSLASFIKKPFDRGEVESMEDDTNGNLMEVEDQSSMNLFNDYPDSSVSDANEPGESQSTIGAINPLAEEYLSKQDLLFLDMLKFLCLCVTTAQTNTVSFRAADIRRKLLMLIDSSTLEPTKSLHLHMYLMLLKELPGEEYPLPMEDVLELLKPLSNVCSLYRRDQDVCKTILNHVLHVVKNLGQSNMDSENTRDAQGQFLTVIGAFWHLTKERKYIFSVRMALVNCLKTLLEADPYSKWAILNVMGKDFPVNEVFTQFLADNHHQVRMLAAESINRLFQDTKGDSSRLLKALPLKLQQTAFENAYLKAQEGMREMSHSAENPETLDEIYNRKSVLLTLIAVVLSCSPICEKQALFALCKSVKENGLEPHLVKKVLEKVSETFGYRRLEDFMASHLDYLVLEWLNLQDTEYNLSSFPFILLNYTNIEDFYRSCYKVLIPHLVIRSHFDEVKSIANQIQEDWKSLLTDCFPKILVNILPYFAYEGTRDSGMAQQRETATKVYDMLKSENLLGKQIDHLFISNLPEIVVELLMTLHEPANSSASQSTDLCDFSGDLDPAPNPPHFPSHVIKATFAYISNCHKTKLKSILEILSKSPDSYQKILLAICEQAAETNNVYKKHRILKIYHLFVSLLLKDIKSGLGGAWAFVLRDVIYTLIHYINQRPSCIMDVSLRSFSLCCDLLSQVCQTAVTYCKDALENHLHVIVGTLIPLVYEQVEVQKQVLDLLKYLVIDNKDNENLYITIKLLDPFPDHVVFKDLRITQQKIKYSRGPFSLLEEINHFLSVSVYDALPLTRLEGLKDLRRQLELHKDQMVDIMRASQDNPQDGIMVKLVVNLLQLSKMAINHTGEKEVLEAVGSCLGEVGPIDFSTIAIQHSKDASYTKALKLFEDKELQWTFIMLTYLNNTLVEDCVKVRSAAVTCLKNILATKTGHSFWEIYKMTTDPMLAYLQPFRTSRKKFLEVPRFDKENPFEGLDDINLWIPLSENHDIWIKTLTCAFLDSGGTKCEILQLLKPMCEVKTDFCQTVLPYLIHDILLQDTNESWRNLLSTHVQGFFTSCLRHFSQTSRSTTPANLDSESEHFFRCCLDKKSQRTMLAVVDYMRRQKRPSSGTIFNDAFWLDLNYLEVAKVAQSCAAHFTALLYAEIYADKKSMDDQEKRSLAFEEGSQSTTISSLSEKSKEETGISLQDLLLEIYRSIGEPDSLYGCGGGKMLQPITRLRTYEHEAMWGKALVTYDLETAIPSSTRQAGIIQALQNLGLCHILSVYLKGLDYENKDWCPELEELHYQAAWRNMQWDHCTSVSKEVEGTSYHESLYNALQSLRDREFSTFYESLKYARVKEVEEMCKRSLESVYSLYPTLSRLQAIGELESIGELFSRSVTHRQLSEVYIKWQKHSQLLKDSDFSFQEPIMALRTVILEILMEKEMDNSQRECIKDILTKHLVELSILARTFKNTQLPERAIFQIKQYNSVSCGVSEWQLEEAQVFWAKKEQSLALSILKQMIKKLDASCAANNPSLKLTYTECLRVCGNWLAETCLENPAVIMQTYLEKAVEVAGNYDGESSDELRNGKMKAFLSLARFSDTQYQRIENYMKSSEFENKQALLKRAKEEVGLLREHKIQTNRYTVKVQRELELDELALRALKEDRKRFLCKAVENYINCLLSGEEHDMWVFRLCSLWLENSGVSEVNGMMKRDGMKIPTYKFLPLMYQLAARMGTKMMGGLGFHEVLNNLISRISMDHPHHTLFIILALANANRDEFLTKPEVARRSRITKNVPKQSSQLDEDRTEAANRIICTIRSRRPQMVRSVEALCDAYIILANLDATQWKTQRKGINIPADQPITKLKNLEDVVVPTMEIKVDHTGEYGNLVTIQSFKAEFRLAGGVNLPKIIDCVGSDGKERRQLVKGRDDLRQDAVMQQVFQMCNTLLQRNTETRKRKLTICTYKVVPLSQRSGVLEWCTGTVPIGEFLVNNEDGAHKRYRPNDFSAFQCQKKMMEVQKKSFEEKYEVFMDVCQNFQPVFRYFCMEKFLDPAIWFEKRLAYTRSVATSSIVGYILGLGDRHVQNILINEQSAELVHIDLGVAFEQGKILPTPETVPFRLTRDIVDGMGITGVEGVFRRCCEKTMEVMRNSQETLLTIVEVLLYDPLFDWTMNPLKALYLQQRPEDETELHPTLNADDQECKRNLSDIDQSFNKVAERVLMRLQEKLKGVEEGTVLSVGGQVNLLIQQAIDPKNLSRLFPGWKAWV
Protocol: Blotted membranes were blocked during 1 h at room temperature with saturation buffer (1% BSA in TBST), and then incubated with primary antibody diluted in saturation buffer, during 1 h 30. Secondary antibodies were added for 1 hour.

786-O VHL^− cells [2] = test: 3D assay on Multicellular Tumor Spheroids (Propidium Iodide); assay type: cell-based, human; conditions: 5 μM, 48 h, P≤0.0001 Kruskal-Wallis
Protocol: For 3-D culture (spheroids), the spheroids were prepared in 96-wells U-bottom tissue culture plate with low evaporation Lid (Microtest™, Becton Dickinson Labware, San Jose, Calif.) coated with 20 mg/mL of poly-HEMA per well to allow the formation of spheroids. Renal cancer cells 786-O WT, 786-O pBABE and 786-O VHL (taken from exponentially growing cultures) were seeded at a density of […] in RPMI supplemented with 10% FCS. 90 μL (9×10^2 cells) of these cell suspensions were deposed in each well then tissue culture plates were incubated at 37° C. and 5% CO2 for 3 days before drug treatment for further 48 h.
Three days pre-formed spheroids were treated with the different drugs at indicated concentrations during 48 H. After that, Hoechst (200 ng/mL) and Propidium Iodide (1 μg/mL) were added as markers of cell nuclei and cell death respectively. Images of IP and Hoechst fluorescence were acquired at the CMBA platform using the automated microscope ArrayScanVTI (ThermoScientific). ArrayScanVTI is a fluorescent microscope which allows the rapid and fully automated acquisition of images of fixed or live cells in 96-well microplates at different magnifications. Dedicated softwares are used to automatically perform High Content image Analysis like spheroid area measurement, fluorescent intensity measurement of each staining and counting of the number of dead cells.

786-O VHL^− cells [3] = test: FACS cell cycle analysis (Propidium Iodide); assay type: cell-based, human; conditions: hypoxic conditions, 48 h
Protocol: FIG. 6: A) FACS analysis of 786-O VHL^− cells treated for 48 h with indicated compounds under hypoxic conditions and labeled with Propidium Iodide for cell cycle analysis.

inhibition of ATM (phosphorylation of P-ATM Ser1981) (ATM): clearly inhibited
SMILES: C[C@@H]1CN(CC(=O)Nc2ccc3c(c2)Cc2cccc(-c4cc(=O)cc(N5CCOCC5)o4)c2S3)C[C@H](C)O1 [KU-60019, 2-((2S,6R)-2,6-dimethylmorpholino)-N-(5-(6-morpholino-4-oxo-4H-pyran-2-yl)-9H-thioxanthen-2-yl)acetamide]
efficiency of ATM inhibitor compared with KU-55933 (786-O VHL^− cells [1]; 786-O cell viability, with CK2 inhibitors (FIG. 2C)): significantly more efficient | sensitivity of cells to ATM inhibitor after shRNA-mediated knockdown of CK2α (cell viability) (786-O VHL^− cells [1]): enhanced the sensitivity | cell death in shCK2α MTS versus vehicle (DMSO) (786-O VHL^− cells [2]): Significant difference

SMILES: O=C(O)c1ccc2c(c1)nc(Nc1cccc(Cl)c1)c1ccncc12 [CX-4945, 5-(3-chlorophenylamino)benzo[c][2,6]naphthyridine-8-carboxylic acid]
effect on G1 phase (786-O VHL^− cells [3]): without effect | cell death in shATM MTS versus vehicle (786-O VHL^− cells [2]): Significant difference

SMILES: O=c1cc(-c2cccc3c2Sc2ccccc2S3)oc(N2CCOCC2)c1 [KU-55933, 2-Morpholin-4-yl-6-thianthren-1-yl-pyran-4-one]
sensitivity of cells to ATM inhibitor after shRNA-mediated knockdown of CK2α (cell viability) (786-O VHL^− cells [1]): enhanced the sensitivity
